These results are taken from patent publication US20230295109A1, “PYRIDINONE COMPOUNDS FOR THE TREATMENT OF AUTOIMMUNE DISEASE” (F. Hoffmann-La Roche AG, priority 2020, published 2023).

Series [1] in a line: Human microsome stability assay. The series is classed as in vitro ADME. To be noted: 1 µM test compound, 0.5 mg/mL liver microsomal protein, 37° C., pH 7.4. As for the experimental part: The human microsomal stability assay is used for early assessment of metabolic stability of a test compound in human liver microsomes.
Human liver microsomes (Cat.NO.: 452117, Corning, USA;Cat.NO.:H2610, Xenotech, USA) were preincubated with test compound for 10 minutes at 37° C. in 100 mM potassium phosphate buffer, pH 7.4. The reactions were initiated by adding NADPH regenerating system. The final incubation mixtures contained 1 µM test compound, 0.5 mg/mL liver microsomal protein, 1 mM MgCl2, 1 mM NADP, 1 unit/mL isocitric dehydrogenase and 6 mM isocitric acid in 100 mM potassium phosphate buffer, pH 7.4. After incubation times of 0, 3, 6, 9, 15 and 30 minutes at 37° C., 300 µL of cold acetonitrile (including internal standard) was added to 100 µL incubation mixture to terminate the reaction. Following precipitation and centrifugation, the amount of compound remaining in the samples were determined by LC-MS/MS. Controls of no NADPH regenerating system at zero and 30 minutes were also prepared and analyzed.
For orientation: Liver microsomes are a subcellular fraction often used to study metabolism.

The next series concerns the target T1, TLR9 (Homo sapiens, UniProt Q9NR96).
T1 sequence (Q9NR96 26-1032): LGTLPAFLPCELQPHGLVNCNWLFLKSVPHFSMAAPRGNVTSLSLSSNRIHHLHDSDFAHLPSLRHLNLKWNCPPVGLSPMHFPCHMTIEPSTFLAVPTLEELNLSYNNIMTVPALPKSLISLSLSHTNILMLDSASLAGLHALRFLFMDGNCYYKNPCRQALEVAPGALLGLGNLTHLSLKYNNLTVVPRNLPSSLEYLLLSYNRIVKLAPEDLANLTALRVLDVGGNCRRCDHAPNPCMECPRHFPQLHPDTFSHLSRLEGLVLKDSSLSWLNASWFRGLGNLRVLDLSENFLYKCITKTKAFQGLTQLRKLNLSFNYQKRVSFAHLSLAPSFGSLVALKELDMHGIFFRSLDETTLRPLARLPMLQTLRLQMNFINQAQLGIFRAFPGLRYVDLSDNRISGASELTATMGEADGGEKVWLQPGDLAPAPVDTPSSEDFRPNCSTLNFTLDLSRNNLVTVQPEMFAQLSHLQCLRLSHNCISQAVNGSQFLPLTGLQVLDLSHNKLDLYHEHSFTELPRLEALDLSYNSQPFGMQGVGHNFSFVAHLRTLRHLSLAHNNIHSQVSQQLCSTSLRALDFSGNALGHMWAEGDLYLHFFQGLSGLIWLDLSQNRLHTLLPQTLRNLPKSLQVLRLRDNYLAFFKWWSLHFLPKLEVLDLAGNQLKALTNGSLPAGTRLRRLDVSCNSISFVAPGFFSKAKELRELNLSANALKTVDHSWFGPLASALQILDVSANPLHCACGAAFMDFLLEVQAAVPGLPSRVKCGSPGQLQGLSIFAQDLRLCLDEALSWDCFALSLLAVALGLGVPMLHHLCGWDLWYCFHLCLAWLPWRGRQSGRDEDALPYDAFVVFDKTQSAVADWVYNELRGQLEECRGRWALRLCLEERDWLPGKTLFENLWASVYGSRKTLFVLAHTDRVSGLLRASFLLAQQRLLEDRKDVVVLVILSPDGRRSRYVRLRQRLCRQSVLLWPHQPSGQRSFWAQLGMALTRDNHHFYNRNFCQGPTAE
Nature of the series: HEK293-Blue-hTLR-9 cells assay. The series is classed as cell-based. Also on record: host or cells: HEK293 (HEK-Blue hTLR9). To be noted: HEK293-Blue-hTLR9 cells, ODN2006 stimulation, 20 hrs, SEAP reporter; read-out: HEK/hTLR9 IC50. The text has this: A stable HEK293-Blue-hTLR-9 cell line was purchased from InvivoGen (Cat.#: hkb-htlr9, San Diego, California, USA). These cells were originally designed for studying the stimulation of human TLR9 by monitoring the activation of NF-κB. A SEAP (secreted embryonic alkaline phosphatase) reporter gene was placed under the control of the IFN-β minimal promoter fused to five NF-κB and AP-1-binding sites. The SEAP was induced by activating NF-κB and AP-1 via stimulating HEK-Blue hTLR9 cells with TLR9 ligands. Therefore the reporter expression was declined by TLR9 antagonist under the stimulation of a ligand, such as ODN2006 (Cat.#: tlrl-2006-1, Invivogen, San Diego, California, USA), for incubation of 20 hrs. The cell culture supernatant SEAP reporter activity was determined using QUANTI-Blue™ kit (Cat.#: rep-qb1, Invivogen, San Diego, California, USA) at a wavelength of 640 nm, a detection medium that turns purple or blue in the presence of alkaline phosphatase.
HEK293-Blue-hTLR9 cells were incubated at a density of 250,000~450,000 cells/mL in a volume of 170 µL in a 96-well plate in Dulbecco’s Modified Eagle’s medium (DMEM) containing 4.5 g/L glucose, 50 U/mL penicillin, […], […], 2 mM L-glutamine, 10% (v/v) heat-inactivated fetal bovine serum with addition of 20 µL test compound in a serial dilution in the presence of final DMSO at 1% and 10 µL of 20uM ODN2006 in above DMEM, perform incubation under 37° C. in a CO2 incubator for 20 hrs. Then 20 µL of the supernatant from each well was incubated with 180 µL Quanti-blue substrate solution at 37° C. for 2 h and the absorbance was read at 620 \~655 nm using a spectrophotometer. The signaling pathway that TLR9 activation leads to downstream NF-κB activation has been widely accepted, and therefore similar reporter assay was modified for evaluating TLR9 antagonist.

Molecules are shown by their SMILES.

Consider `CCc1nc(N2CCN(Cc3cnc(N4CC(C)(N)C4)nc3)CC2)ccc1-c1cc(C)c(=O)n(C)c1` [Example 3, 5-[6-[4-[[2-(3-amino-3-methyl-azetidin-1-yl)pyrimidin-5-yl]methyl]piperazin-1-yl]-2-ethyl-3-pyridyl]-1,3-dimethyl-pyridin-2-one], for which the “Clearance of Human microsome” value in series [1] is on record as 6.1 mL/min/kg. Also, the IC50 on TLR9 was 621 nM.

Consider `CCc1nc(N2CCN3CCN(c4cnc(N5CC6(CNCCO6)C5)nc4)CC3C2)ccc1-c1cc(C)c(=O)n(C)c1` (centres unmarked) [Example 19, 5-[2-ethyl-6-[2-[2-(5-oxa-2,8-diazaspiro[3.5]nonan-2-yl)pyrimidin-5-yl]-3,4,6,7,9,9a-hexahydro-1H-pyrazino[1,2-a]pyrazin-8-yl]-3-pyridyl]-1,3-dimethyl-pyridin-2-one], for which, on TLR9, the IC50 is 833 nM.

In the case of `CCc1nc(N2CCN(Cc3cnc(N4CCOC[C@@H](N)C4)nc3)CC2)ccc1-c1cc(C)c(=O)n(C)c1` [Example 4, 5-[6-[4-[[2-[(6S)-6-amino-1,4-oxazepan-4-yl]pyrimidin-5-yl]methyl]piperazin-1-yl]-2-ethyl-3-pyridyl]-1,3-dimethyl-pyridin-2-one], the IC50 on TLR9 was 318 nM.

As to `Cc1cc(-c2ccc(N3CCN(Cc4ccc(N5CCNCC5)cc4)CC3)nc2C(F)F)cn(C)c1=O` [Example 17, 5-[2-(difluoromethyl)-6-[4-[(4-piperazin-1-ylphenyl)methyl]piperazin-1-yl]-3-pyridyl]-1,3-dimethyl-pyridin-2-one], the “Clearance of Human microsome” value in series [1] is reported as 8.5 mL/min/kg. For the same molecule, the IC50 at TLR9 is 68 nM.

Consider `Cc1cc(-c2ccc(N3CCN(Cc4ccc(N5CCNCC5)nc4)CC3)nc2C(C)C)cn(C)c1=O` [Example 11, 5-[2-isopropyl-6-[4-[(6-piperazin-1-yl-3-pyridyl)methyl]piperazin-1-yl]-3-pyridyl]-1,3-dimethyl-pyridin-2-one], for which the IC50 on TLR9 worked out at 136 nM.

With `CCc1nc(N2CCN(Cc3ccc(N4CC5(CNCCO5)C4)nc3)CC2)ccc1-c1cc(C)c(=O)n(C)c1` [Example 2, 5-[2-ethyl-6-[4-[[6-(5-oxa-2,8-diazaspiro[3.5]nonan-2-yl)-3 pyridyl]methyl]piperazin-1-yl]-3-pyridyl]-1,3-dimethyl-pyridin-2-one], the “Clearance of Human microsome” value in series [1] was 12.0 mL/min/kg. Further, the IC50 on TLR9 was determined as 212 nM.

For `Cc1cc(-c2ccc(N3CCN(Cc4cnc(N5CC6(CNCCO6)C5)nc4)CC3)nc2C(C)C)cn(C)c1=O` [Example 6, 5-[2-isopropyl-6-[4-[[2-(5-oxa-2,8-diazaspiro[3.5]nonan-2-yl)pyrimidin-5-yl]methyl]piperazin-1-yl]-3-pyridyl]-1,3-dimethyl-pyridin-2-one], the IC50 on TLR9 worked out at 198 nM.

On to `Cc1cc(-c2ccc(N3CCN4CCN(c5ccc(N6CCNCC6)nc5)CC4C3)nc2C(C)C)cn(C)c1=O` (centres unmarked) [Example 16, 5-[2-isopropyl-6-[8-(6-piperazin-1-yl-3-pyridyl)-3,4,6,7,9,9a-hexahydro-1H-pyrazino[1,2-a]pyrazin-2-yl]-3-pyridyl]-1,3-dimethyl-pyridin-2-one], for which, at TLR9, the IC50 was determined as 324 nM.

`Cc1cc(-c2ccc(N3CCN(Cc4ccc(N5CCNCC5)cc4)CC3)nc2C(C)C)cn(C)c1=O` [Example 13, 5-[2-isopropyl-6-[4-[(4-piperazin-1-ylphenyl)methyl]piperazin-1-yl]-3-pyridyl]-1,3-dimethyl-pyridin-2-one]: the IC50 at TLR9 amounted to 111 nM.

Turning to `CCc1nc(N2CCN(Cc3ccc(N4CCNCC4)cc3)CC2)ccc1-c1cc(C)c(=O)n(C)c1` [Example 5, 5-[2-ethyl-6-[4-[(4-piperazin-1-ylphenyl)methyl]piperazin-1-yl]-3-pyridyl]-1,3-dimethyl-pyridin-2-one], on TLR9, the IC50 worked out at 54 nM.

For `Cc1cc(-c2ccc(N3CCN(Cc4cnc(N5CC(C)(N)C5)nc4)CC3)nc2C(C)C)cn(C)c1=O` [Example 10, 5-[6-[4-[[2-(3-amino-3-methyl-azetidin-1-yl)pyrimidin-5-yl]methyl]piperazin-1-yl]-2-isopropyl-3-pyridyl]-1,3-dimethyl-pyridin-2-one], the IC50 on TLR9 amounted to 139 nM.
